Test results taken from US12410133B2, “Crystalline (r)-5-carbamoylpyridin-3-yl-2-methyl-4-(3-(trifluoromethoxy)benzyl)piperazine-1-carboxylate, compositions and methods of use thereof” (Celgene Corporation, priority 2018, dated 2025).
≈ marks a conversion by molar mass, not a printed value.

Legend:
[1] = pKa detection by Sirius T3; assay type: physicochemical; details: Sirius T3, range 2.0 to 12.0, in triplicate; read-out: Measured pKa value
Method: A summary of baseline solid state characterization results of crystalline (R)-5-carbamoylpyridin-3-yl-2-methyl-4-(3-(trifluoromethoxy)benzyl)piperazine-1-carboxylate Form A, including pKa, partition coefficient (log D7.4) measurement and 2-hrs equilibrium solubility in FaSSIF and FeSSIF (version 2) are provided herein. […] Log D7.4 was measured with the solvent system of pH 7.4 phosphate buffer and n-octanol by shake-flask method. Meanwhile, 2-hrs equilibrium solubility of (R)-5-carbamoylpyridin-3-yl-2-methyl-4-(3-(trifluoromethoxy)benzyl)piperazine-1-carboxylate in FaSSIF and FeSSIF (version 2) was measured to be 0.12 and 0.080 mg/mL.

[2] = Solubility of Form A in physiologically relevant media (37° C.); assay type: physicochemical
[3] = physchem; details: thermodynamic from solid
[4] = Competitive slurry study of forms A to E in water; assay type: physicochemical; details: room temperature, 7 days
Method: A competitive slurry study of all known forms A to E was performed in water at room temperature to understand the thermodynamic stability relationship among these forms. Form A was used to saturate the water before it was filtered to obtain a near-saturated solution. Equal amounts of each form (A to E) were weighed and then mixed with the prepared near-saturated solution to form a new suspension, which was stirred magnetically (˜1000 rpm) at room temperature for 7 days.

[5] = Dynamic vapor sorption (DVS) of Form A; assay type: physicochemical
Method: Dynamic vapor sorption (DVS) was performed on a Surface Measurement Systems DVS Intrinsic. The relative humidity at 25° C. were calibrated against deliquescence point of LiCl, Mg(NO3)2, and KCl. Sample sizes were between 10-20 mg. Gas and flow rate was nitrogen, 200 mL/min; dm/dt: 0.002%/min.

[6] = Solution stability test of Form A in physiologically relevant media at 37° C.; assay type: physicochemical; parameters: unit not given here
Method: A solution stability test of Form A was performed to assess substantial degradation of (R)-5-carbamoylpyridin-3-yl-2-methyl-4-(3-(trifluoromethoxy)benzyl)piperazine-1-carboxylate in physiologically relevant media. A solution of (R)-5-carbamoylpyridin-3-yl-2-methyl-4-(3-(trifluoromethoxy)benzyl)piperazine-1-carboxylate (1 mg/mL) was prepared in acetonitrile/water (50/50 v/v). Test medium (1990 μL) was added to a vial. Test media evaluated included buffers pH 1-8, simulated gastric fluid (SGF), fasted state simulated intestinal fluid (FaSSIF), and fed state simulated intestinal fluid (FeSSIF). Stock solution (10 μL) was added to the vial containing the medium. This mixture was stirred to mix well and transferred to a HPLC vial, which was placed in the autosampler maintained at 37° C. The vial was injected repeatedly every 4 hr for 24 hr.

## C[C@@H]1CN(Cc2cccc(OC(F)(F)F)c2)CCN1C(=O)Oc1cncc(C(N)=O)c1 [Form A, (R)-5-carbamoylpyridin-3-yl-2-methyl-4-(3-(trifluoromethoxy)benzyl)piperazine-1-carboxylate]
[1]
  pKa: 5.79
[2]; HCl/NaCl buffer pH 1.0, simulated gastric fluid, thermodynamic from solid, pH 1.0 HCl/NaCl buffer, final measured pH 1.47
  solubility: > 20000 µg/mL
[2]; acetate buffer pH 4, aqueous buffer, thermodynamic from solid, pH 4 Acetate buffer, final measured pH 4.18
  solubility: 696 µg/mL (≈ 1.59 mM)
[2]; acetate buffer pH 5, aqueous buffer, thermodynamic from solid, pH 5 Acetate buffer, final measured pH 5.14
  solubility: 91 µg/mL (≈ 0.208 mM)
[2]; aqueous buffer, thermodynamic from solid, pH 4 (0.0001N HCl), final measured pH 7.78
  solubility: 11 µg/mL (≈ 0.0251 mM)
[2]; pH 4.9, aqueous buffer, thermodynamic from solid, pH 3 (0.001N HCl), final measured pH 4.90
  solubility: 57 µg/mL (≈ 0.13 mM)
[2]; pH 8.1, thermodynamic from solid, Water, final measured pH 8.10
  solubility: 12 µg/mL (≈ 0.0274 mM)
[2]; phosphate buffer pH 2.5, aqueous buffer, thermodynamic from solid, pH 2.5 Phosphate buffer, final measured pH 3.44
  solubility: 4330 µg/mL (≈ 9.87 mM)
[2]; phosphate buffer pH 3, pH 4.2, aqueous buffer, thermodynamic from solid, pH 3 Phosphae buffer, final measured pH 4.20
  solubility: 1250 µg/mL (≈ 2.85 mM)
[2]; phosphate buffer pH 6.8, aqueous buffer, thermodynamic from solid, pH 6.8 Phosphate buffer, final measured pH 6.88
  solubility: 7 µg/mL (≈ 0.016 mM)
[2]; phosphate buffer pH 8.0, pH 8.1, aqueous buffer, thermodynamic from solid, pH 8.0 Phosphate buffer, final measured pH 8.10
  solubility: 5 µg/mL (≈ 0.0114 mM)
[2]; simulated gastric fluid, thermodynamic from solid, SGF with pepsin, final measured pH 1.75
  solubility: > 20000 µg/mL
[2]; simulated gastric fluid, thermodynamic from solid, pH 1 (0.1N HCl), final measured pH 1.48
  solubility: > 20000 µg/mL
[2]; simulated gastric fluid, thermodynamic from solid, pH 2 (0.01N HCl), final measured pH 3.55
  solubility: 3860 µg/mL (≈ 8.8 mM)
[2]; thermodynamic from solid, FaSSIF, final measured pH 6.48
  solubility: 146 µg/mL (≈ 0.333 mM)
[2]; thermodynamic from solid, FeSSIF, final measured pH 5.17
  solubility: 1020 µg/mL (≈ 2.32 mM)
[3]; organic solvent or mixture, Approximate solubility, 1,4-dioxane, RT
  solubility: > 22000 µg/mL
[3]; organic solvent or mixture, Approximate solubility, 2-MeTHF, RT
  solubility: > 23000 µg/mL
[3]; organic solvent or mixture, Approximate solubility, ACN, RT
  solubility: > 24000 µg/mL
[3]; organic solvent or mixture, Approximate solubility, Acetone, RT
  solubility: > 17000 µg/mL
[3]; organic solvent or mixture, Approximate solubility, Anisole, RT
  solubility: > 20000 µg/mL
[3]; organic solvent or mixture, Approximate solubility, CHCl3, RT
  solubility: > 19000 µg/mL
[3]; organic solvent or mixture, Approximate solubility, DCM, RT
  solubility: > 19000 µg/mL
[3]; organic solvent or mixture, Approximate solubility, DMSO, RT
  solubility: > 20000 µg/mL
[3]; organic solvent or mixture, Approximate solubility, EtOAc, RT
  solubility: > 26000 µg/mL
[3]; organic solvent or mixture, Approximate solubility, EtOH, RT
  solubility: > 17000 µg/mL
[3]; organic solvent or mixture, Approximate solubility, IPA, RT
  solubility: > 24000 µg/mL
[3]; organic solvent or mixture, Approximate solubility, IPAC, RT
  solubility: > 21000 µg/mL
[3]; organic solvent or mixture, Approximate solubility, MIBK, RT
  solubility: > 24000 µg/mL
[3]; organic solvent or mixture, Approximate solubility, MTBE, RT
  solubility: 7700 to 11500 µg/mL (≈ 17.6 to 26.2 mM)
[3]; organic solvent or mixture, Approximate solubility, MeOH, RT
  solubility: > 23000 µg/mL
[3]; organic solvent or mixture, Approximate solubility, NMP, RT
  solubility: > 21000 µg/mL
[3]; organic solvent or mixture, Approximate solubility, THF, RT
  solubility: > 26000 µg/mL
[3]; organic solvent or mixture, Approximate solubility, n-heptane, RT
  solubility: < 900 µg/mL
[3]; organic solvent or mixture, Approximate solubility, toluene, RT
  solubility: 4500 to 6000 µg/mL (≈ 10.3 to 13.7 mM)
[3]; water, Approximate solubility, H2O, RT
  solubility: > 1000 µg/mL
[4]
  Thermodynamic stability relationship among forms A to E: thermodynamically the most stable form
[5]; 25° C., between 0 and 95% RH
  Form change after the DVS test (XRPD comparison): no form change was observed
[5]; 25° C./80% RH
  Water uptake (DVS): 0.05%
[6]; FaSSIF, 37° C., 0 hr
  Solution chemical stability data: 100.0
[6]; FaSSIF, 37° C., 4 hr
  Solution chemical stability data: 100.6
[6]; FaSSIF, 37° C., 8 hr
  Solution chemical stability data: 100.2
[6]; FaSSIF, 37° C., 12 hr
  Solution chemical stability data: 100.5
[6]; FaSSIF, 37° C., 16 hr
  Solution chemical stability data: 100.3
[6]; FaSSIF, 37° C., 20 hr
  Solution chemical stability data: 100.0
[6]; FaSSIF, 37° C., 24 hr
  Solution chemical stability data: 100.0
[6]; FeSSIF, 37° C., 0 hr
  Solution chemical stability data: 100.0
[6]; FeSSIF, 37° C., 4 hr
  Solution chemical stability data: 99.6
[6]; FeSSIF, 37° C., 8 hr
  Solution chemical stability data: 100.2
[6]; FeSSIF, 37° C., 12 hr
  Solution chemical stability data: 99.7
[6]; FeSSIF, 37° C., 16 hr
  Solution chemical stability data: 99.6
[6]; FeSSIF, 37° C., 20 hr
  Solution chemical stability data: 99.8
[6]; FeSSIF, 37° C., 24 hr
  Solution chemical stability data: 99.7
[6]; SGF, 37° C., 0 hr
  Solution chemical stability data: 100.0
[6]; SGF, 37° C., 4 hr
  Solution chemical stability data: 100.2
[6]; SGF, 37° C., 8 hr
  Solution chemical stability data: 100.1
[6]; SGF, 37° C., 12 hr
  Solution chemical stability data: 99.2
[6]; SGF, 37° C., 16 hr
  Solution chemical stability data: 99.7
[6]; SGF, 37° C., 20 hr
  Solution chemical stability data: 100.4
[6]; SGF, 37° C., 24 hr
  Solution chemical stability data: 99.6
[6]; pH = 1, 37° C., 0 hr
  Solution chemical stability data: 100.0
[6]; pH = 1, 37° C., 4 hr
  Solution chemical stability data: 99.6
[6]; pH = 1, 37° C., 8 hr
  Solution chemical stability data: 100.3
[6]; pH = 1, 37° C., 12 hr
  Solution chemical stability data: 100.3
[6]; pH = 1, 37° C., 16 hr
  Solution chemical stability data: 99.9
[6]; pH = 1, 37° C., 20 hr
  Solution chemical stability data: 101.9
[6]; pH = 1, 37° C., 24 hr
  Solution chemical stability data: 100.5
[6]; pH = 3, 37° C., 0 hr
  Solution chemical stability data: 100.0
[6]; pH = 3, 37° C., 4 hr
  Solution chemical stability data: 99.8
[6]; pH = 3, 37° C., 8 hr
  Solution chemical stability data: 99.8
[6]; pH = 3, 37° C., 12 hr
  Solution chemical stability data: 98.5
[6]; pH = 3, 37° C., 16 hr
  Solution chemical stability data: 99.3
[6]; pH = 3, 37° C., 20 hr
  Solution chemical stability data: 99.6
[6]; pH = 3, 37° C., 24 hr
  Solution chemical stability data: 99.5
[6]; pH = 5.0, 37° C., 0 hr
  Solution chemical stability data: 100.0
[6]; pH = 5.0, 37° C., 4 hr
  Solution chemical stability data: 100.9
[6]; pH = 5.0, 37° C., 8 hr
  Solution chemical stability data: 101.7
[6]; pH = 5.0, 37° C., 12 hr
  Solution chemical stability data: 99.9
[6]; pH = 5.0, 37° C., 16 hr
  Solution chemical stability data: 100.7
[6]; pH = 5.0, 37° C., 20 hr
  Solution chemical stability data: 99.9
[6]; pH = 5.0, 37° C., 24 hr
  Solution chemical stability data: 99.6
[6]; pH = 6.8, 37° C., 0 hr
  Solution chemical stability data: 100.0
[6]; pH = 6.8, 37° C., 4 hr
  Solution chemical stability data: 100.2
[6]; pH = 6.8, 37° C., 8 hr
  Solution chemical stability data: 100.8
[6]; pH = 6.8, 37° C., 12 hr
  Solution chemical stability data: 100.1
[6]; pH = 6.8, 37° C., 16 hr
  Solution chemical stability data: 100.0
[6]; pH = 6.8, 37° C., 20 hr
  Solution chemical stability data: 99.6
[6]; pH = 6.8, 37° C., 24 hr
  Solution chemical stability data: 99.0
[6]; pH = 8.0, 37° C., 0 hr
  Solution chemical stability data: 100.0
[6]; pH = 8.0, 37° C., 4 hr
  Solution chemical stability data: 101.3
[6]; pH = 8.0, 37° C., 8 hr
  Solution chemical stability data: 100.5
[6]; pH = 8.0, 37° C., 12 hr
  Solution chemical stability data: 99.7
[6]; pH = 8.0, 37° C., 16 hr
  Solution chemical stability data: 100.1
[6]; pH = 8.0, 37° C., 20 hr
  Solution chemical stability data: 98.7
[6]; pH = 8.0, 37° C., 24 hr
  Solution chemical stability data: 99.4
